Legend:
Format in all cases: cell-based, human
H226 cells = test: Alamar Blue proliferation assay, H226 (electroporation)
From the text: (§1) The inventors assessed the therapeutic effect of hsa-miR-147 for lung cancer by using 12 individual lung cancer cell lines. To measure cellular proliferation of lung cancer cells, the following parental non-small cell lung cancer (NSCLC) cells were used: cells derived from lung adenocarcinoma (A549, H1299, H522, H838, Calu-3, HCC827, HCC2935), cells derived from lung squamous cell carcinoma (H520, H226), cells derived from lung adenosquamous cell carcinoma (H596), cells derived from lung bronchioalveolar carcinoma (H1650), and cells derived from lung large cell carcinoma (H460). In addition to these parental cell lines, highly metastatic NSCLC cells were used that stably express the firefly luciferase gene: A549-luc, H460-luc, HCC827-luc, H1650-luc, H441-luc. Unlike the parental cell lines, these metastatic cells readily migrate to distant sites of the test animal and form metastases upon subcutaneous, orthotopic, or intravenous injection. Synthetic hsa-miR-147 or negative control miRNA was delivered via lipid-based transfection into A549, H1299, H522, H838, Calu-3, HCC827, HCC2935, H520, H596, H1650, H460, A549-luc, H460-luc, HCC827-luc, H1650-luc, H441-luc cells and via electroporation into H226 cells. Lipid-based reverse transfection was carried out in triplicates according to a published protocol and the following parameters: 5000-12000 cells per 96 well, 0.1-0.2 μl lipofectamine-2000 (Invitrogen, Carlsbad, Calif.) in 20 μl OptiMEM (Invitrogen), […] final concentration of miRNA in 100 μl (Ovcharenko et al., 2005). Electroporation of H226 cells was carried out using the BioRad GenePulserXcell™ instrument with the following settings: 5×10^6 cells with 5 μg miRNA in 200 μl OptiMEM, square wave pulse at 250 V for 5 ms. Electroporated H226 cells were seeded at 7000 cells per 96-well in a total volume of 100 μl. All cells except for Calu-3 cells were harvested 72 hours post transfection or electroporation for assessment of cellular proliferation. Calu-3 cells were harvested 10 days post transfection. […]

H441-luc cells = test: Alamar Blue proliferation assay, H441-luc
From the text: as §1

HCC827 cells = test: Alamar Blue proliferation assay, HCC827
From the text: as §1

A549-luc cells = test: Alamar Blue proliferation assay, A549-luc
From the text: as §1

A549 cells = test: Alamar Blue proliferation assay, A549
From the text: as §1, with “ms.” for “ms. Electroporated H226 cells were seeded at 7000 cells per 96-well in a total volume of 100 μl. All cells except for Calu-3 cells were harvested 72 hours post transfection or electroporation for assessment of cellular proliferation. Calu-3 cells were harvested 10 days post transfection.”
(§2) The inventors determined sensitivity and specificity of hsa-miR-147 by administering hsa-miR-147 or negative control miRNA at increasing concentrations, ranging from 0 pM to 3 nM. Delivery of miRNA and cellular proliferation of A549 and H1299 cells was assessed as described above. […]

H838 cells = test: Alamar Blue proliferation assay, H838
From the text: as §1

H522 cells = test: Alamar Blue proliferation assay, H522
From the text: as §1

H1650 cells = test: Alamar Blue proliferation assay, H1650
From the text: as §1

H460 cells = test: Alamar Blue proliferation assay, H460
From the text: as §1

Calu-3 cells = test: Alamar Blue proliferation assay, Calu-3
From the text: as §1

H520 cells = test: Alamar Blue proliferation assay, H520
From the text: as §1

H1299 cells = test: Alamar Blue proliferation assay, H1299
From the text: as §1, with “ms.” for “ms. Electroporated H226 cells were seeded at 7000 cells per 96-well in a total volume of 100 μl. All cells except for Calu-3 cells were harvested 72 hours post transfection or electroporation for assessment of cellular proliferation. Calu-3 cells were harvested 10 days post transfection.”
as §2

H596 cells = test: Alamar Blue proliferation assay, H596
From the text: as §1

H460-luc cells = test: Alamar Blue proliferation assay, H460-luc
From the text: as §1

[1] = etoposide 10 μM, normalized to negative control miRNA (100%)
[2] = etoposide 50 μM, normalized to negative control miRNA (100%)
[3] = 30 nM, normalized to negative control miRNA (100% proliferation)

COc1cc([C@@H]2c3cc4c(cc3[C@@H](O[C@@H]3O[C@@H]5CO[C@@H](C)O[C@H]5[C@H](O)[C@H]3O)[C@H]3COC(=O)[C@H]23)OCO4)cc(OC)c1O [Etoposide, etoposide]
% proliferation (H226 cells; [1]): 28.17%
% proliferation (H226 cells; [2]): 9.33%
% proliferation (H441-luc cells; [1]): 41.22%
% proliferation (H441-luc cells; [2]): 1.99%
% proliferation (HCC827 cells; [1]): 98.95%
% proliferation (HCC827 cells; [2]): 82.53%
% proliferation (A549-luc cells; [1]): 8.56%
% proliferation (A549-luc cells; [2]): 0.72%
% proliferation (A549 cells; [1]): 49.13%
% proliferation (A549 cells; [2]): 42.18%
% proliferation (H838 cells; [1]): 89.71%
% proliferation (H838 cells; [2]): 36.97%
% proliferation (H522 cells; [1]): 82.13%
% proliferation (H522 cells; [2]): 61.08%
% proliferation (H1650 cells; [1]): 90.98%
% proliferation (H1650 cells; [2]): 60.31%
% proliferation (H460 cells; [1]): 32.13%
% proliferation (H460 cells; [2]): 27.82%
% proliferation (Calu-3 cells; [1]): 20.81%
% proliferation (Calu-3 cells; [2]): 13.53%
% proliferation (H520 cells; [1]): 66.80%
% proliferation (H520 cells; [2]): 48.53%
% proliferation (H1299 cells; [1]): 79.65%
% proliferation (H1299 cells; [2]): 54.38%
% proliferation (H596 cells; [1]): 88.75%
% proliferation (H596 cells; [2]): 73.39%
% proliferation (H460-luc cells; [1]): 15.04%
% proliferation (H460-luc cells; [2]): 2.34%

hsa-miR-147: Synthetic pre-miR-147 (Ambion AM17100; Dharmacon in vivo); mature sequence GUGUGUGGAAAUGCUUCUGC, MIMAT0000251, SEQ ID NO:114 (synthetic pre-miR (Ambion/Dharmacon), chemistry not given here; listed as Homo sapiens)
% proliferation (H226 cells; [3]): 72.82%
% proliferation (H441-luc cells; [3]): 55.53%
% proliferation (HCC827 cells; [3]): 76.18%
% proliferation (A549-luc cells; [3]): 75.69%
% proliferation (A549 cells; [3]): 67.78%
% proliferation (H838 cells; [3]): 71.44%
% proliferation (H522 cells; [3]): 89.21%
% proliferation (H1650 cells; [3]): 84.61%
% proliferation (H460 cells; [3]): 72.11%
% proliferation (Calu-3 cells; [3]): 37.62%
% proliferation (H520 cells; [3]): 95.64%
% proliferation (H1299 cells; [3]): 78.22%
% proliferation (H596 cells; [3]): 91.60%
% proliferation (H460-luc cells; [3]): 39.54%

— patent US20090131356A1, “miR-15, miR-26, miR-31, miR-145, miR-147, miR-188, miR-215, miR-216, miR-331, mmu-miR-292-3P REGULATED GENES AND PATHWAYS AS TARGETS FOR THERAPEUTIC INTERVENTION” (ASURAGEN, INC., priority 2006, published 2009)
